Where “and” joins values, the source holds several entries; their conditions need not be identical. Identical values can stand only once.
Key:
A53T a-syn or EV rats = assay: Striatal catecholamines by HPLC; format: in vivo, rat; settings: A53T high titer
Protocol: Animals were secured in a stereotactic frame under isoflurane/oxygen anesthesia and ketoprofen (5 mg/kg) analgesia. The surgical site was shaved and sterilized with iodine/betadine prior to making a 2 cm incision along the midline. The scalp was exposed and a unilateral injection targeting the SN was performed at coordinates AP −5.2 mm, ML −2 mm and DV −7.5 mm with respect to the bregma as a point of reference. For each animal, a total volume of 2 μl of virus was injected at a rate of 0.5 μl/min using a microinjection pump and 10 μl Hamilton syringe with a 26-gauge needle. For A53T groups, 1 μl (low dose) or 1.34 μl (high dose) of AAV1/2-A53T a-syn (5.1 × 10^12 genomic particles/ml), 0.14 μl of AAV1/2-PDpep1.3-GFP or Scramble1.3-GFP (5.1 × 10^12 genomic particles/ml) and 0.86 μl or 0.52 μl of sterile PBS was injected; for EV groups, 1 μl (low dose) or 1.34 μl (high dose) of AAV1/2-EV (5.1 × 10^12 genomic particles/ml) replaced AAV1/2-A53T. […]
HPLC was performed as described. […] Catecholamines were determined from the supernatant. Values of catecholamines are expressed as ng analyte/mg total protein.

V1S/SV2 a-syn rats = assay: AAV-V1S/SV2 a-syn oligomer rat model; format: in vivo
Protocol: Adult female Sprague-Dawley rats (250–280 g; Envigo) were pair-housed in cages with wood bedding and had access to food and water ad libitum. The animal colony was maintained in a regular 12 h light/dark cycle. All procedures were approved by the University Health Network Animal Care Committee in accordance with guidelines and regulations set by the Canadian Council on Animal Care (AUP #3818).
Animals were secured in a stereotactic frame under isoflurane/oxygen anesthesia and ketoprofen (5 mg/kg) analgesia. The surgical site was shaved and sterilized with iodine/betadine prior to making a 2 cm incision along the midline. The scalp was exposed and a unilateral injection targeting the SN was performed at coordinates AP −5.2 mm, ML −2 mm and DV −7.5 mm with respect to the bregma as a point of reference. For each animal, a total volume of 2 μl of virus was injected at a rate of 0.5 μl/min using a microinjection pump and 10 μl Hamilton syringe with a 26-gauge needle. […] At the end of virus injection, the needle remained in place for 5 min before gradual removal.
Sections were then incubated in blocking solution (1% or 2% BSA, 10% normal goat serum in PBS-T) for 1 h. After blocking, sections were incubated with primary antibodies in antibody solution (2% normal goat serum in PBS-T) overnight at RT. Sections were then washed in PBS or PBS-T and incubated with secondary antibodies diluted in antibody solution for 1 h in the dark at room temperature. Sections were then mounted onto glass slides and allowed to dry and then Dako fluorescence mounting medium (Agilent) was applied, followed by coverslips.
Confocal images of immunofluorescent staining were acquired with a Zeiss LSM880 confocal microscope equipped with 405, 488, 555, and 639 nm laser lines. All images were taken within the linear range at constant gain and pinhole settings at optimal resolution settings determined by the software. For primary cortical neurons and iPSC-derived dopaminergic neurons, the software was programmed to acquire an image every 1 μm for a total of 11 μm, capturing all of the neurons visible in the z-plane in each field of view using a ×63 objective. At least 30 images were acquired for each treatment group from three independent experiments. For animal experiments, the whole midbrain or striatum regions were imaged using a ×5 or ×10 objective. Ten serial coronal midbrain sections were imaged per animal, separated by 240 μm intervals. […]
Confocal images of immunofluorescent staining of midbrain sections were processed using HALO software (Indica Labs), which is a well validated tool for automatic quantification of neurons in brain tissue sections[70]–[72]. […] Fluorescent intensity and area were then assessed in this ROI.

**Q.** Which “Striatal dopamine, DOPAC and HVA” value (A53T a-syn or EV rats) does the source give for DEEIERQLKALG [PDpep1.3] here?
**A.** The value was “restored compared with the Scramble1.3 condition”.

**Q.** What about the “Effect on a-syn oligomer levels, YFP positive area” value (V1S/SV2 a-syn rats; 6 weeks post-injection, SN) of the same sequence?
**A.** The value was “significant reduction in a-syn oligomer levels”.

**Q.** And the “TH fluorescence in striatum” value (V1S/SV2 a-syn rats; V1S/SV2, 6 weeks, individual rats)?
**A.** The value was 0.2276 and 0.1447 and 0.1385 and 0.1997 and 0.2935 and 0.176 and 0.1626 and 0.2047 and 0.2584 and 0.2974.

**Q.** What about the “YFP mean fluorescence intensity in TH+ and RFP+ SN cells” value (V1S/SV2 a-syn rats; V1S/SV2, 6 weeks, n = 8–9 rats/group) of the same sequence?
**A.** The value was 0.063 ± 0.0167 RFU.

**Q.** And the “Effect on pS129 a-syn in striatum” value (V1S/SV2 a-syn rats; V1S/SV2 rats)?
**A.** Its value is “reduced pS129 a-syn accumulation in the striatum”.

Reference: article PMC10115881, “Disrupting the α-synuclein-ESCRT interaction with a peptide inhibitor mitigates neurodegeneration in preclinical models of Parkinson’s disease” (Nature Communications, 2023)
